From ChEMBL document CHEMBL3217469, “Redesigning the designer drug ecstasy: non-psychoactive MDMA analogues exhibiting Burkitt's lymphoma cytotoxicity” (Medchemcomm, 2010)

Tests used:
[1] = Cytotoxicity against human L3055 cells assessed as reduction in [3H]thymidine incorporation after 24 hrs by propidium iodide staining-based assay; type: functional, cell-based
SH-SY5Y = assay: Neurotoxicity against human SH-SY5Y cells at 1 to 600 uM after 24 hrs by Alamar Blue assay; type: toxicity, cell-based
[2] = Ratio of MDMA IC50 to compound IC50 for human L3055 cells; type: functional
Rattus norvegicus [3] = assay: Induction of psychotic activity in Wistar rat assessed as reduction in prepulse inhibition of acoustic startle reflex at 4.4 to 88 umol/kg; type: organism-based; settings: in vivo
[4] = target: T1, 5-hydroxytryptamine receptor 1A (Rattus norvegicus, UniProt P19327); assay: Displacement of [3H]WAY100635 from 5-HT1A receptor in Sprague-Dawley rat cerebral cortex after 60 mins by scintillation counting analysis; type: tissue-based
T1 sequence (P19327 whole entry): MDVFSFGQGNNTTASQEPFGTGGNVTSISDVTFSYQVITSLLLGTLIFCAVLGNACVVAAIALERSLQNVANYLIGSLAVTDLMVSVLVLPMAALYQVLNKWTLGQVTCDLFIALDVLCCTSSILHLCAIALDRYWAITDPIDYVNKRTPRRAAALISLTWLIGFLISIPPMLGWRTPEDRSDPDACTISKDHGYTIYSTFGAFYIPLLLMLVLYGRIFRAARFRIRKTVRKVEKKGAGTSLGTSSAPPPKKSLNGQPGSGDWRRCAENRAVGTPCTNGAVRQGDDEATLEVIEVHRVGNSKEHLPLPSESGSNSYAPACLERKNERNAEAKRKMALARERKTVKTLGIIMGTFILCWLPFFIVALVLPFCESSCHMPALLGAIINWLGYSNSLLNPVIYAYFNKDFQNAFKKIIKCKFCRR

Serotonin 1B/1D receptor = Serotonin 1B/1D receptor (Rattus norvegicus, UniProt P28564+P28565); assay: Displacement of [3H]GR125743 from 5-HT1B/1D receptor in Sprague-Dawley rat whole brain after 60 mins by scintillation counting analysis
[5] = target: T2, 5-hydroxytryptamine receptor 2C (Rattus norvegicus, UniProt P08909); assay: Displacement of [3H]mesulergine from 5-HT2C receptor in Sprague-Dawley rat whole brain after 60 mins by scintillation counting analysis
T2 sequence (P08909 whole entry): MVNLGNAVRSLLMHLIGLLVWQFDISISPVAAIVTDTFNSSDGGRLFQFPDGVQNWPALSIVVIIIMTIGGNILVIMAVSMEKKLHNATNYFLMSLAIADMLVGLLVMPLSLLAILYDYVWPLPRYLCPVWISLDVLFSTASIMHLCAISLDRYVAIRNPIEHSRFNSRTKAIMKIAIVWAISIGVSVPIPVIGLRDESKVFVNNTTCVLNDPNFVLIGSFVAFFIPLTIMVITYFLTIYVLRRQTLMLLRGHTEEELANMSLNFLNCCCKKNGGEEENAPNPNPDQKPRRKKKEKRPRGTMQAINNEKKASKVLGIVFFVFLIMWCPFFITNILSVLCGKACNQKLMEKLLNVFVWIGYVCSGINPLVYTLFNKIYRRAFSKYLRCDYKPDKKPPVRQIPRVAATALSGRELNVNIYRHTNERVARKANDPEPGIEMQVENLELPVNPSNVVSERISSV

[6] = target: 5-hydroxytryptamine receptor 2A (Rattus norvegicus, UniProt P14842); assay: Displacement of [3H]-ketanserin from 5-HT2A receptor in Sprague-Dawley rat cerebral cortex after 45 mins by scintillation counting analysis; type: tissue-based
5-hydroxytryptamine receptor 2A, sequence (P14842 whole entry): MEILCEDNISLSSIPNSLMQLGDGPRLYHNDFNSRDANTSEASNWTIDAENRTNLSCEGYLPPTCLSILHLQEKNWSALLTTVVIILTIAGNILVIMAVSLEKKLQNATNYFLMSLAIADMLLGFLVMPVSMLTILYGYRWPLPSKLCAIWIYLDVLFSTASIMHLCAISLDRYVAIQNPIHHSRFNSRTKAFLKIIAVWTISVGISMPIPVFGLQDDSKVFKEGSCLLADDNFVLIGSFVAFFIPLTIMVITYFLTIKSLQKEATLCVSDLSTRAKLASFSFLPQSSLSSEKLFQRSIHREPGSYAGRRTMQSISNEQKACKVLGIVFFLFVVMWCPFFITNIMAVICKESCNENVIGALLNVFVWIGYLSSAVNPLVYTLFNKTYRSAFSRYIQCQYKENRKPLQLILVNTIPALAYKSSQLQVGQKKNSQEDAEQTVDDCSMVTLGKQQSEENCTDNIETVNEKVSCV

Transporter = Transporter (Rattus norvegicus, UniProt Q63380); assay: Displacement of [3H]nisoxetine from NET in Sprague-Dawley rat cerebellum after 60 mins by scintillation counting analysis
Transporter, sequence (Q63380 whole entry): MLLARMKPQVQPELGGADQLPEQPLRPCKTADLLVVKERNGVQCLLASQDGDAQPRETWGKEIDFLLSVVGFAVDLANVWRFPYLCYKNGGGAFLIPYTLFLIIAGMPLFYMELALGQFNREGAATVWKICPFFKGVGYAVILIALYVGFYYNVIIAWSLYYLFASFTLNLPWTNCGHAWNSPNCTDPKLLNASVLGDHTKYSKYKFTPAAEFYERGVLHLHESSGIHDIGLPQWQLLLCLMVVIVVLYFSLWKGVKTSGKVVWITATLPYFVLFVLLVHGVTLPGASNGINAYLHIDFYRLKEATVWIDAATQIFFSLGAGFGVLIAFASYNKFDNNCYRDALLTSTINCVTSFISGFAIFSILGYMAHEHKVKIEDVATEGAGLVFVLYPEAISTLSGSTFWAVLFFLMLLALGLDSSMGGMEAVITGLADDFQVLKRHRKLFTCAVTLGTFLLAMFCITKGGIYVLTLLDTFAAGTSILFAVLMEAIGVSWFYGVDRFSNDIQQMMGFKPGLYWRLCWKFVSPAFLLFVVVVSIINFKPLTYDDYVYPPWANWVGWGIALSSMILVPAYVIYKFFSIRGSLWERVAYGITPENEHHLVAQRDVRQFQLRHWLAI

[7] = target: Sodium-dependent serotonin transporter (Rattus norvegicus, UniProt P31652); assay: Displacement of [3H]citalopram from SERT in Sprague-Dawley rat whole brain after 60 mins by scintillation counting analysis
Sodium-dependent serotonin transporter, sequence (P31652 whole entry): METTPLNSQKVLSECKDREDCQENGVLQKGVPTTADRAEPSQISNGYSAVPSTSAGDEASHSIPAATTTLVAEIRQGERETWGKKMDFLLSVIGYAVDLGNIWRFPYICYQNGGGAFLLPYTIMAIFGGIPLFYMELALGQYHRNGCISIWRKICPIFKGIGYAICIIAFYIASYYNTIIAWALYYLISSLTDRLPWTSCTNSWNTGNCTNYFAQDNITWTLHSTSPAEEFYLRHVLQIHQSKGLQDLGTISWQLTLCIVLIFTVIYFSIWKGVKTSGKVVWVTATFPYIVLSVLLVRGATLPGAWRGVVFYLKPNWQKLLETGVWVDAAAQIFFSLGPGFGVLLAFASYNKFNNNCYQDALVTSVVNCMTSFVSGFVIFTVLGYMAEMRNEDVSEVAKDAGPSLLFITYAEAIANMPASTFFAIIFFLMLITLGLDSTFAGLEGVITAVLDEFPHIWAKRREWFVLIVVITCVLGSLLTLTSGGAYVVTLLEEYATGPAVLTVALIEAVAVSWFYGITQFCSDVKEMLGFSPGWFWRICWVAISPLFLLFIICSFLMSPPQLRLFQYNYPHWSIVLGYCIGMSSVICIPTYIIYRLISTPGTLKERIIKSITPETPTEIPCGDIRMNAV

[8] = target: Sodium-dependent dopamine transporter (Rattus norvegicus, UniProt P23977); assay: Displacement of [3H]GBR12935 from DAT in Sprague-Dawley rat striatum after 45 mins by scintillation counting analysis
Sodium-dependent dopamine transporter, sequence (P23977 whole entry): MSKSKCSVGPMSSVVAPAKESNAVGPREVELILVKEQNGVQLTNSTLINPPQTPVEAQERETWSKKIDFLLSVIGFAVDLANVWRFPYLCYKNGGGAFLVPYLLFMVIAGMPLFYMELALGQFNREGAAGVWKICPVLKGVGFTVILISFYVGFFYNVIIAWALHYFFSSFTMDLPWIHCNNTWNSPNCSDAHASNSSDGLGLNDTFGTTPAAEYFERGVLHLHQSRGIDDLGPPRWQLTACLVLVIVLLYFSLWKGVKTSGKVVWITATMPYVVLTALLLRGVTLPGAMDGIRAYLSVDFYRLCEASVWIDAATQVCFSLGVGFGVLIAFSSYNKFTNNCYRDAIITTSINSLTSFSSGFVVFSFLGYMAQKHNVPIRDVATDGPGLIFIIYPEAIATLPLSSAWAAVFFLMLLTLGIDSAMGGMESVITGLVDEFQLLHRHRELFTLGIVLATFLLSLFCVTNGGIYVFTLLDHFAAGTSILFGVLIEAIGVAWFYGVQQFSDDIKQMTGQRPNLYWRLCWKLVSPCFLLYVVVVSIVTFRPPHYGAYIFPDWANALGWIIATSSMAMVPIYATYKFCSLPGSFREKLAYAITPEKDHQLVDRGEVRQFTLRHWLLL

Rattus norvegicus [9] = organism: Rattus norvegicus; assay: Induction of psychotic activity in Wistar rat assessed as reduction in prepulse inhibition of acoustic startle reflex; type: organism-based; settings: in vivo

Compound `CNC(Cc1ccc2c(c1)OCO2)Cc1ccc2c(c1)OCO2` has an IC50 [1] of 36.7 µM.

Compound `CNC(Cc1ccc2c(c1)OCO2)c1ccccc1C` (racemic) has an IC50 [1] of 65 µM.

For `CNC(Cc1ccc2c(c1)OCO2)c1cccc(C)c1` (racemic), the IC50 [1] was 51 µM.

`CNC(Cc1ccc2c(c1)OCO2)c1ccc(C)cc1` (racemic) gave an IC50 [1] of 42 µM.

In the case of `CNC(Cc1ccc2c(c1)OCO2)c1ccccc1OC` (racemic), the IC50 [1] is reported as 92 µM.

In the case of `CNC(Cc1ccc2c(c1)OCO2)c1cccc(OC)c1` (racemic), the IC50 [1] is reported as 80 µM.

`CNC(Cc1ccc2c(c1)OCO2)c1ccc(OC)cc1` (racemic) gave an IC50 [1] of 69 µM.

In the case of `CNC(Cc1ccc2c(c1)OCO2)c1ccc(F)cc1` (racemic), the IC50 [1] is reported as 63 µM.

For `CNC(Cc1ccc2c(c1)OCO2)C1CCCCC1` (racemic), the IC50 [1] was 81 µM.

In the case of `CNC(Cc1ccccc1)Cc1ccc2c(c1)OCO2` (racemic), the IC50 [1] is reported as 69 µM.

With `CNC(Cc1ccc2c(c1)OCO2)c1cccc2ccccc12.Cl` (racemic) the Activity (SH-SY5Y) was “Non-toxic”, the “Ratio IC50” value [2] was 100 and the IC50 [1] was 12.6 µM.

In the case of `CNC(Cc1ccc2c(c1)OCO2)c1ccc2ccccc2c1.Cl` (racemic), the Activity (SH-SY5Y) is reported as “Non-toxic”, the “Ratio IC50” value [2] is reported as 100 and the IC50 [1] is reported as 6.6 µM.

`CNC(Cc1ccc2c(c1)OCO2)c1ccc(-c2ccccc2)cc1` (racemic) gave an IC50 [1] of 6 µM.

For `CCC(Cc1ccc2c(c1)OCO2)NC` (racemic), the IC50 [1] was 707 µM.

Work on `CCCC(Cc1ccc2c(c1)OCO2)NC` (racemic) yielded an IC50 [1] of 379 µM.

For `CNC(Cc1ccc2c(c1)OCO2)C1CC1` (racemic), the IC50 [1] was 801 µM.

For `CNC(Cc1ccc2c(c1)OCO2)C(C)C` (racemic), the IC50 [1] was 651 µM.

In the case of `CNC(Cc1ccc2c(c1)OCO2)C(C)(C)C` (racemic), the IC50 [1] is reported as 447 µM.

In the case of `CNC(Cc1ccc2c(c1)OCO2)c1ccccc1.Cl` (racemic), the Activity (Rattus norvegicus [3]) is reported as “Non-toxic”, the Ki [4] is reported as over 10 µM and the Ki (Serotonin 1B/1D receptor) is reported as over 10 µM. The Ki [5] was over 10 µM, the Ki [6] was 1.23 µM and the Ki (Transporter) was 0.7 µM. For the same compound, the Ki [7] was 1.32 µM, the Ki [8] was over 10 µM and the Activity (SH-SY5Y) was “Toxic”. The “Ratio IC50” value [2] was 7 and the IC50 [1] was 76 µM.

`CNC(C)Cc1ccc2c(c1)OCO2.Cl` (centres undefined) [MIDOMAFETAMINE HYDROCHLORIDE] gave a Ki [4] of over 10 µM, a Ki (Serotonin 1B/1D receptor) of over 10 µM and a Ki [5] of over 10 µM. It also gave a Ki [6] of over 10 µM, a Ki (Transporter) of over 10 µM and a Ki [7] of 0.21 µM. For the same compound, the Ki [8] was over 10 µM, the Activity (SH-SY5Y) was “Toxic” and the IC50 [1] was 507 µM. For the same compound, the Activity (Rattus norvegicus [9]) was “Dose-dependent effect”.

For `COc1ccc(CC(C)N)cc1` (centres undefined) [PARA-METHOXYAMPHETAMINE], the Activity (Rattus norvegicus [9]) was “Dose-dependent effect”.
